Literature values as cited in US12083109B2, “Neurokinin antagonists and uses thereof” (California Institute of Technology, priority 2017, dated 2024).
Like-named read-outs stand apart in the source and are kept apart here.

Target: T1, NK3R (Homo sapiens, UniProt P29371)
T1 construct: host or cells: human trial subjects
T1 sequence (P29371 1-465): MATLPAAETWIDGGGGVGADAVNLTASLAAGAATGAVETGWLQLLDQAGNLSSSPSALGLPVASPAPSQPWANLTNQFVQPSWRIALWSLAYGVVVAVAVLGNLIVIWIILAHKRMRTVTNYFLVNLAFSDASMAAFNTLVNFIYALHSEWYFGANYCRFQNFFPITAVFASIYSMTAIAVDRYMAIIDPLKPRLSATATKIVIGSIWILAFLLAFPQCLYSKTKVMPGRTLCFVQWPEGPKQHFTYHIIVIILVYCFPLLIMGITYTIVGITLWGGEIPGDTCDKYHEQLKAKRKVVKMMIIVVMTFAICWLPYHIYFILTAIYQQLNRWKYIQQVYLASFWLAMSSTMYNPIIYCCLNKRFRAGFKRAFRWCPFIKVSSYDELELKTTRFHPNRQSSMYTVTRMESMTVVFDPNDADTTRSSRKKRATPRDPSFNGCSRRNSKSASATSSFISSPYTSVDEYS
Conditions: cited from earlier work; for safety and tolerability in clinical trials: human, Phase I

**Q.** Which “efficacy in schizophrenia and major depressive disorder” value (human trials, Phase II/III) does the source give for `CCC(NC(=O)c1c(O)c(-c2ccccc2)nc2ccccc12)c1ccccc1` (stereo not drawn) [Talnetant, 3-hydroxy-2-phenyl-N-(1-phenylpropyl)quinoline-4-carboxamide] here?
**A.** lack of efficacy

**Q.** And the “safety and tolerability in clinical trials” value?
**A.** exhibited safety

**Q.** What about the “safety and tolerability in clinical trials” value (listed as talnetant) of the same molecule?
**A.** safe and well-tolerated
